Reference: publication PMC4226669, “Anti-cancer potency of tasquinimod is enhanced via albumin-binding facilitating increased uptake in the tumor microenvironment” (Oncotarget, 2014)
“Also recorded” adds a separate entry of the source. Read-outs that look alike come from different tables or passages of the source.

How the values were obtained:
[1] = Tissue distribution and metabolites in nude mice bearing CWR-22Rv1 cancers; type: in vivo, mouse; settings: 4 hours post oral 5mg/kg tasquinimod; for concentration at 4 h: male, nude, mouse
Description: To determine the concentration of metabolites, nude mice bearing CWR-22Rv1 prostate cancers were orally administered with 5 mg/kg of ^14C- radiolabeled tasquinimod and 4 and 24 hours later, blood plasma and liver, kidney, and cancer tissue harvested and analyzed for determination of metabolites. […] The predominant metabolite is the O-demethylated quinoline compound, Figure 2A&B, but the concentration of the hydroxylated aromatic quinoline and the N-demethylated quinoline compounds, along with the O-demethylated quinoline compound are also higher in the liver than the blood at the time point studied, Figure 2B. Also in the kidney 40% of the drug is present as metabolites, with the concentration of the hydroxylated aromatic quinoline and the O-demethylated quinoline compounds being higher than in the blood, Figure 2B. In contrast, within the cancer > 80% of the total concentration of drug is present as parent tasquinimod, Figure 2B. Only the O-demethylated quinoline compound is present at a higher concentration in the cancer than blood, Figure 2B. The plasma concentration of total metabolites is < 10% at 4 hours, Figure 2B, and 24 hours post oral dosing with 5 mg/kg, Figure 2A.
Male nude mice bearing 200-300mm^3 CWR-22Rv1 cancers were given ^14C-labeled tasquinimod at a dose of 5 mg/kg via oral gavage. At times ranging from 30 min to 24 hour, groups of 4-6 mice were anaesthetized with ketamine and 1 ml of heparinized blood collected by cardiac puncture, followed by subsequent cardiac perfusion of saline to remove blood associated drug. An aliquot of liver, kidney, and cancer was removed, weighed and then homogenized. The radioactivity in 10 μL aliquots of tissue homogenates and blood plasma was determined using a liquid scintillation counter and used to calculate the total amount of tasquinimod plus its metabolites per gram of tissue or per ml of blood. The remaining sample volume was deproteinated with acetonitrile and the radioactivity of an aliquot of the supernatant determined and the remaining supernatant lyophilized, resuspended initially with 0.1mL dimethyl sulfoxide and diluted by the addition of 0.9mL deionized water prior to injection into the HPLC. The HPLC system consisted of Waters pumps using a Waters gradient controller to deliver mobile phase at a flow rate of 1mL per minute using a Supelcosil ABZ+ C18 column that is 150mm long by 4.6mm diameter and has 5μm particle size. The metabolites were separated using a linear gradient in which the starting mobile phase was 35% acetonitrile: 65% water: 0.1% Trifluoroacetic acid (TFA) increasing to 50% acetonitrile: 50% water: 0.1%TFA over 25 minutes, and then increased rapidly to 98% acetonitrile: 2% water: 0.1%TFA and held until 33 minutes before it is returned to the initial conditions for the next run. Fractions were collected and the radioactivity determined by scintillation counting. As controls, the individual elution time of non-radiolabeled standard solutions of the various tasquinimod metabolites was determined using UV absorption at 215nm. The results were expressed as concentration based upon tissue volume, assuming 1gram wet weight equals 1ml, or normalized to tissue vascular volume.

[2] = system: CWR-22Rv1 human prostate cancer xenografts; test: Dose-response growth inhibition of established CWR-22Rv1 xenografts (subcutaneous daily injection); type: in vivo, mouse; settings: 20 days
Description: To confirm these in vitro results, mice were inoculated subcutaneously (SQ) with CWR-22Rv1 cells and remained untreated until the tumors grew to ~ 200 mm3 (i.e., ~ 200 mgs) and then they were randomly assigned to groups (n=10) which were injected SQ daily with 100 μl of propylene glycol vehicle only vs. vehicle delivering 0.1 or 1 mg/kg/day of either tasquinimod or its carboxamide-N-demethylated metabolite. Propylene glycol was used as vehicle due to the low water solubility of the carboxamide-N-demethylated metabolite. After 20 days of continuous treatment, the experiment was terminated and the total weight of each cancer determined and the results expressed both as average tumor weight in grams and as the ratio of the weight of the cancers in the treated vs. vehicle control animals (i.e., T/C ratio), Figure 5A.
(§1) The source, history, and characteristics of the human prostate cancer cell lines (i.e., LNCaP, LAPC4, and CWR-22Rv1 and the human umbilical vascular endothelial cells (HUVEC) used, as well as cell culture conditions for their in vitro maintenance and the in vivo protocol for their xenografting into immune-deficient nude male mice are as described previously. The source, history, and characteristics of the TRAMP-C2 mouse prostate cancer line, as well as cell culture conditions for their in vitro maintenance and the in vivo protocol for their growth in intact adult male syngeneic C57Bl/6J are as described previously. All lines were mycoplasma negative using the MycoSensor PCR Assay kit (Agilent Technologies) and genetically authenticated within the last 6 months using short tandem repeat profiling conducted by the Johns Hopkins Genetic Resource Core Facility. The source, history, and characteristics of the CWR-RH human prostate cancer xenograft are as described previously. In vitro growth curves were determined as described. Animal studies were conducted according to animal protocol MO09M434 approved by Johns Hopkins Animal Care and Use Committee. Daily drug dosing via oral gavage, the drinking water, or subcutaneous injection, as well as tumor volume measurements and determination of the blood vessel density within cancers, were as described previously. These experiments were repeated at 3 independent times for each xenograft.

Water solubility = type: physicochemical
[3] = system: human umbilical vein endothelial cells (HUVECs); test: 3D in vitro endothelial sprouting and tube formation assay; type: cell-based; settings: for IC50: Homo sapiens, HUVEC, 3D-HUVEC sprouting assay, read-out: IC50 (concentration of drug which inhibits by 50% the endothelial sprouting)
Text: A three-dimensional (3D) in vitro endothelial sprouting and tube formation assay was utilized to define the anti-angiogenic potency of tasquinimod vs. these metabolites. In this 3D assay, human umbilical endothelial cells (i.e., HUVECs) are initially grown on microcarrier beads and the cell coated beads embedded in fibrin gels with media conditioned by normal human lung fibroblasts. Under these 3D-conditions, endothelial cells “sprout” producing 3D neovessel tubes with patent lumen within one week, Figure 4A - left panel. When tasquinimod is added at the initiation to these 3D-cultures, sprouting of the endothelial cells is inhibited, Figure 4B-right panel, with the potency for such inhibition, expressed as an IC50 value (i.e., the concentration of drug which inhibits by 50% the endothelial sprouting) of 0.5 μM, Figure 4C. […] Using this 3D-HUVEC assay, the potency (i.e., expressed as IC50) of tasquinimod metabolites to inhibit endothelial sprouting was compared to tasquinimod. […] To further confirm that tasquinimod itself and not the carboxamide-N-demethylated metabolite is the active drug, the response to ketoconazole alone and in combination with tasquinimod was tested in the 3D-endothelial sprouting assay.
The 3-dimensional (3D) in vitro angiogenic sprouting and tube formation assay was used as described previously. This 3D-endothelial sprouting assay was conducted using a minimum of 5 replicate wells per drug dose per experiment, repeated 3 independent times using human umbilical vein endothelial cells (HUVECs; Lonza Walkersville, Inc.) with modification that 20 μL of 10X concentrated Dulbecco's Modified Eagle's Media/10%FCS media conditioned by confluent human primary lung fibroblasts (Lonza) diluted to 200 μL of growth factor supplemented EGM-2 media (Lonza) was used instead of fibroblast co-culture.

HUVEC cells = test: In vitro cell metabolism in HUVEC; type: in vitro ADME, human; settings: HUVEC exposed to 1 μM 14C-labeled tasquinimod, 48 hours
Description: The nuclear uptake results are consistent with tasquinimod being the active drug for both direct therapeutic effects on cancer cells and indirect effects via suppression of the angiogenic response of host endothelial cells. To confirm these conclusions, the concentration of tasquinimod metabolites produced by endothelial cells was compared to the potency of these metabolites for inhibiting angiogenesis. When HUVEC cells are exposed to 1 μM of ^14C-labeled tasquinimod for 48 hours, < 15% of the drug is metabolized with 10% (i.e., 100 nM) being converted to the quinoline-O-demethylated compound and < 2% (i.e., < 20 nM) being converted to the quinoline-N-demethylated or carboxamide-N-demethylated compounds.
For in vitro studies, cells were incubated with 1μM ^14C-labeled tasquinimod for indicated time period and then the media and cells or cell nuclei separately harvested, deproteinated with acetonitrile, and metabolites separated by HPLC and quantitated as described above.

[4] = system: CWR-22RH human prostate cancer; test: Tumor take of CWR-22RH xenografts in castrated nude mice; type: in vivo, mouse
Description: To confirm this conclusion, castrated male nude mice were xenografted with the castrate resistant CWR-22RH human prostate cancer tissue and the animals immediately randomized into groups (n=10) which were: 1) left untreated as controls; 2) given daily oral treatment with tasquinimod alone via the drinking water (10mg/kg/day); 3) given oral ketoconazole alone via oral gavage at a daily dose which inhibits cytochrome P450 3A4 (i.e., 25 mg/kg/day); or 4) given a combination of the two drugs. […] These combined in vitro/in vivo results document tasquinimod, not one of its metabolites, is the active drug.
as §1

CYP-3A [5] = system: CYP-3A; design: method as in PMID 15764719; settings: read-out: IC50 for inhibition of CYP-3A; cited from earlier work
CYP-3A [6] = system: CYP-3A; design: method as in PMID 21391977; settings: oral dose of 25mg/kg/day; cited from earlier work
[7] = CWR-22Rv1 cancer tissue, CWR-22Rv1 cancer, 1gm tissue = 1ml, read-out: concentration in CWR-22Rv1 cancer
[8] = kidney, 1gm tissue = 1ml, read-out: concentration in kidney
[9] = liver, 1gm tissue = 1ml, read-out: concentration in liver
[10] = plasma, read-out: concentration in plasma

Row | SMILES | percentage of total drug in CWR-22Rv1 cancer ([1]; CWR-22Rv1 cancer) | percentage of total drug in kidney ([1]; kidney) | percentage of total drug in liver ([1]; liver) | concentration at 4 h [1, 7] | concentration at 4 h [1, 8] | concentration at 4 h [1, 9] | concentration at 4 h [1, 10] | percentage of total drug in plasma ([1]; plasma) | IC50 [3] | concentration of metabolite formed (HUVEC cells) | fraction of tasquinimod converted to the metabolite (HUVEC cells) | other results
1 | COc1cccc2c1c(O)c(C(=O)Nc1ccc(C(F)(F)F)cc1)c(=O)n2C [Carboxamide-N-demethylate] | < 1% | < 1% | < 1% | < 30 nM | < 30 nM | < 130 nM | < 60 nM | < 1% | 0.25 µM | < 20 nM | < 2% | Avg Tumor Weight ([2]; 0.1 mg/kg/day SQ): 0.891 ± 0.263 g; T/C Ratio ([2]; 0.1 mg/kg/day SQ): 0.512; Avg Tumor Weight ([2]; 1 mg/kg/day SQ): 0.724 ± 0.223 g; T/C Ratio ([2]; 1 mg/kg/day SQ): 0.415; water solubility (Water solubility): low; fold more potent than tasquinimod (lower IC50) in inhibiting endothelial sprouting ([3]; relative to tasquinimod): 2 fold
2 | COc1cccc2[nH]c(=O)c(C(=O)N(C)c3ccc(C(F)(F)F)cc3)c(O)c12 [Quinoline-N-demethylate] | < 1% | < 1% | 2+/-1% | < 30 nM | < 30 nM | 260 nM | < 60 nM | < 1% | 20 µM | < 20 nM | < 2% | 
3 | CN(C(=O)c1c(O)c2c(O)cccc2n(C)c1=O)c1ccc(C(F)(F)F)cc1 [Quinoline-O-demethylate] | 17+/- 4% | 36+/-4% | 62+/-7% | 460 nM | 1400 nM | 8100 nM | 300 nM | 5+/-1% | 30 µM | 100 nM | 10% | 
4 | CC(=O)N1CCN(c2ccc(OCC3COC(Cn4ccnc4)(c4ccc(Cl)cc4Cl)O3)cc2)CC1 (stereo not drawn) [ketoconazole] |  |  |  |  |  |  |  |  |  |  |  | effect of ketoconazole on tasquinimod's inhibition of 3D HUVEC sprouting ([3]; 10 μM ketoconazole simultaneously present with 1 μM tasquinimod): does not affect; also recorded: does not prevent inhibition; also recorded: does not suppress; inhibition of endothelial sprouting ([3]; ketoconazole alone, 10 μM): did not inhibit; effect of ketoconazole on anti-cancer efficacy of tasquinimod ([4]; ketoconazole 25 mg/kg/day combined with tasquinimod 10mg/kg/day): does not affect; also recorded: does not inhibit the therapeutic efficacy of tasquinimod; also recorded: does not suppress; tumor take and growth ([4]; ketoconazole alone 25 mg/kg/day via oral gavage from inoculation): does not inhibit either the take or growth; IC50 (CYP-3A [5]): […]; inhibition of CYP-3A (CYP-3A [6]): > 90%
